# Reference: PubChem BioAssay (NCI)
#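 Cultured in 96-well plates, cells were exposed to test compound for 48 hours across five concentrations. GI50 is the concentration that inhibits growth by half. Definition used: TGI = concentration required for complete inhibition of growth.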
# Assays:
# Assay in all cases: NCI anticancer screen, dose series, 48 h
# [1] = system: A498 renal
# [2] = system: ACHN renal
# [3] = system: BT-549 breast
# [4] = system: CAKI-1 renal
# [5] = system: COLO 205 colon
# [6] = system: DU-145 prostate
# [7] = system: EKVX NSCLC
# [8] = system: HCT-15 colon
# [9] = system: HOP-92 NSCLC
# [10] = system: HT29 colon
# [11] = system: K-562 leukemia
# [12] = system: M14 melanoma
# [13] = system: MALME-3M melanoma
# [14] = system: MDA-MB-435
# [15] = system: MDA-N
# [16] = system: NCI-H226 lung
# [17] = system: NCI-H23 lung
# [18] = system: NCI-H460 lung
# [19] = system: OVCAR-4 ovarian
# [20] = system: OVCAR-5 ovarian
# [21] = system: PC-3 prostate
# [22] = system: SF-268 CNS
# [23] = system: SF-539 CNS
# [24] = system: SK-MEL-28 melanoma
# [25] = system: SK-MEL-5 melanoma
# [26] = system: SN12C renal
# [27] = system: SNB-19 CNS
# [28] = system: SR leukemia
# [29] = system: TK-10 renal
# [30] = system: UACC-257 melanoma
# [31] = system: UACC-62 melanoma
# [32] = system: 786-0 renal
# [33] = system: A549 NSCLC
# [34] = system: CCRF-CEM leukemia
# [35] = system: HCC-2998 colon
# [36] = system: HCT-116 colon
# [37] = system: HL-60(TB) leukemia
# [38] = system: HOP-62 NSCLC
# [39] = system: HS 578T breast
# [40] = system: IGROV1 ovarian
# [41] = system: KM12 colon
# [42] = system: LOX IMVI melanoma
# [43] = system: MCF7 breast
# [44] = system: MDA-MB-231 breast
# [45] = system: MOLT-4 leukemia
# [46] = system: NCI-H522 lung
# [47] = system: NCI/ADR-RES ovarian
# [48] = system: OVCAR-3 ovarian
# [49] = system: OVCAR-8 ovarian
# [50] = system: RPMI-8226 leukemia
# [51] = system: RXF 393 renal
# [52] = system: SF-295 CNS
# [53] = system: SK-MEL-2 melanoma
# [54] = system: SK-OV-3 ovarian
# [55] = system: SNB-75 CNS
# [56] = system: SW-620 colon
# [57] = system: T-47D breast
# [58] = system: U251 CNS
# [59] = system: UO-31 renal
smiles,measurement,setting,value
CN(CCCNC(=O)c1cn(C)c2c1ccc1cc(Cl)ccc12)CCCNC(=O)c1cn(C)c2c1ccc1cc(Cl)ccc12,TGI,[1],43.6 µM
same,TGI,[2],3.47 µM
same,TGI,[3],30.9 µM
same,TGI,[4],9.14 µM
same,TGI,[5],2.85 µM
same,TGI,[6],3.79 µM
same,TGI,[7],> 100 µM
same,TGI,[8],2.89 µM
same,TGI,[9],19.3 µM
same,TGI,[10],3.19 µM
same,TGI,[11],> 100 µM
same,TGI,[12],3.75 µM
same,TGI,[13],7.05 µM
same,TGI,[14],3.23 µM
same,TGI,[15],5.6 µM
same,TGI,[16],> 100 µM
same,TGI,[17],> 100 µM
same,TGI,[18],> 100 µM
same,TGI,[19],> 27.2 µM
same,TGI,[20],18.3 µM
same,TGI,[21],2.97 µM
same,TGI,[22],3.25 µM
same,TGI,[23],3.88 µM
same,TGI,[24],3.31 µM
same,TGI,[25],20 µM
same,TGI,[26],3.35 µM
same,TGI,[27],> 100 µM
same,TGI,[28],16.3 µM
same,TGI,[29],> 100 µM
same,TGI,[30],> 100 µM
same,TGI,[31],3.76 µM
N#Cc1ccc(Oc2nccc(-c3c(-c4ccc(F)cc4)ncn3C3CCNCC3)n2)cc1,GI50,[32],> 25 µM
same,TGI,[32],> 25 µM
same,GI50,[1],> 25 µM
same,TGI,[1],> 25 µM
same,GI50,[33],> 16.3 µM
same,TGI,[33],> 25 µM
same,GI50,[2],> 23700 nM
same,TGI,[2],> 25 µM
same,GI50,[3],24.9 µM
same,TGI,[3],> 25 µM
same,GI50,[4],> 25 µM
same,TGI,[4],> 25 µM
same,GI50,[34],7.79 µM
same,TGI,[34],24.7 µM
same,GI50,[5],> 25 µM
same,TGI,[5],> 25 µM
same,GI50,[6],> 25 µM
same,TGI,[6],> 25 µM
same,GI50,[7],> 25 µM
same,TGI,[7],> 25 µM
same,GI50,[35],18.6 µM
same,TGI,[35],> 25 µM
same,GI50,[36],5.45 µM
same,TGI,[36],> 13.5 µM
same,GI50,[8],> 14.8 µM
same,TGI,[8],> 25 µM
same,GI50,[37],> 25 µM
same,TGI,[37],> 25 µM
same,GI50,[38],> 25 µM
same,TGI,[38],> 25 µM
same,GI50,[9],4.04 µM
same,TGI,[9],> 25 µM
same,GI50,[39],> 25 µM
same,TGI,[39],> 25 µM
same,GI50,[10],3.76 µM
same,TGI,[10],8.03 µM
same,GI50,[40],> 25 µM
same,TGI,[40],> 25 µM
same,GI50,[11],5.01 µM
same,TGI,[11],12.4 µM
same,GI50,[41],18.2 µM
same,TGI,[41],> 25 µM
same,GI50,[42],5.85 µM
same,TGI,[42],> 13.5 µM
same,GI50,[12],> 16.4 µM
same,TGI,[12],> 25 µM
same,GI50,[13],> 16.6 µM
same,TGI,[13],> 25 µM
same,GI50,[43],10.7 µM
same,TGI,[43],> 25 µM
same,GI50,[44],> 22.3 µM
same,TGI,[44],> 25 µM
same,GI50,[14],> 15.1 µM
same,TGI,[14],> 25 µM
same,GI50,[45],8.01 µM
same,TGI,[45],20.8 µM
same,GI50,[16],> 25 µM
same,TGI,[16],> 25 µM
same,GI50,[17],> 25 µM
same,TGI,[17],> 25 µM
same,GI50,[18],14 µM
same,TGI,[18],> 25 µM
same,GI50,[46],> 11.9 µM
same,TGI,[46],> 15.6 µM
same,GI50,[47],> 25 µM
same,TGI,[47],> 25 µM
same,GI50,[48],> 25 µM
same,TGI,[48],> 25 µM
same,GI50,[19],> 25 µM
same,TGI,[19],> 25 µM
same,GI50,[20],> 25 µM
same,TGI,[20],> 25 µM
same,GI50,[49],> 16.6 µM
same,TGI,[49],> 25 µM
same,GI50,[21],13.9 µM
same,TGI,[21],> 25 µM
same,GI50,[50],12.1 µM
same,TGI,[50],> 25 µM
same,GI50,[51],20.3 µM
same,TGI,[51],> 25 µM
same,GI50,[22],24.6 µM
same,TGI,[22],> 25 µM
same,GI50,[52],16.6 µM
same,TGI,[52],> 25 µM
same,GI50,[23],> 25 µM
same,TGI,[23],> 25 µM
same,GI50,[53],> 25 µM
same,TGI,[53],> 25 µM
same,GI50,[24],> 25 µM
same,TGI,[24],> 25 µM
same,GI50,[25],14.1 µM
same,TGI,[25],> 25 µM
same,GI50,[54],> 25 µM
same,TGI,[54],> 25 µM
same,GI50,[26],> 25 µM
same,TGI,[26],> 25 µM
same,GI50,[27],> 25 µM
same,TGI,[27],> 25 µM
same,GI50,[55],> 16 µM
same,TGI,[55],> 25 µM
same,GI50,[28],4.54 µM
same,TGI,[28],11.3 µM
same,GI50,[56],> 15.4 µM
same,TGI,[56],> 25 µM
same,GI50,[57],> 25 µM
same,TGI,[57],> 25 µM
same,GI50,[29],> 25 µM
same,TGI,[29],> 25 µM
same,GI50,[58],11.8 µM
same,TGI,[58],> 25 µM
same,GI50,[30],> 22.7 µM
same,TGI,[30],> 25 µM
same,GI50,[31],> 25 µM
same,TGI,[31],> 25 µM
same,GI50,[59],11.9 µM
same,TGI,[59],> 25 µM
COc1cc(Cn2c3c(c4c(CN(C)C)c(O)ccc42)C(=O)c2ccccc2C3=O)cc(OC)c1,TGI,[32],27.6 µM
same,TGI,[1],22.4 µM
same,TGI,[33],35.1 µM
same,TGI,[2],29.6 µM
same,TGI,[4],30.4 µM
same,TGI,[34],52.4 µM
same,TGI,[5],85.3 µM
same,TGI,[6],> 100 µM
same,TGI,[7],40.4 µM
same,TGI,[35],34.5 µM
same,TGI,[36],31.1 µM
same,TGI,[8],28.2 µM
same,TGI,[37],> 100 µM
same,TGI,[38],30.9 µM
same,TGI,[39],43.9 µM
same,TGI,[10],> 100 µM
same,TGI,[11],36.8 µM
same,TGI,[41],> 100 µM
same,TGI,[42],40.6 µM
same,TGI,[12],32.6 µM
same,TGI,[13],76.2 µM
same,TGI,[43],29.4 µM
same,TGI,[44],40.7 µM
same,TGI,[14],37 µM
same,TGI,[15],31.6 µM
same,TGI,[45],88.9 µM
same,TGI,[16],> 100 µM
same,TGI,[17],29.1 µM
same,TGI,[18],32.3 µM
same,TGI,[47],34.8 µM
same,TGI,[48],90.5 µM
same,TGI,[19],26.9 µM
same,TGI,[20],42.5 µM
same,TGI,[49],28.3 µM
same,TGI,[21],35.4 µM
same,TGI,[50],41.5 µM
same,TGI,[22],27.9 µM
same,TGI,[52],44 µM
same,TGI,[23],29.8 µM
same,TGI,[53],29.8 µM
same,TGI,[24],29.2 µM
same,TGI,[25],26 µM
same,TGI,[54],48.3 µM
same,TGI,[26],55.1 µM
same,TGI,[27],36.9 µM
same,TGI,[55],8.07 µM
same,TGI,[28],36.5 µM
same,TGI,[56],38.5 µM
same,TGI,[57],> 100 µM
same,TGI,[29],74.2 µM
same,TGI,[58],36.8 µM
same,TGI,[30],55.7 µM
same,TGI,[31],51.9 µM
same,TGI,[59],27.7 µM
COc1cc2cc(c1Cl)N(C)C(=O)CC(OC(=O)C(C)C)C1(C)OC1C(C)C1CC(O)(NC(=O)O1)C(OC)/C=C/C=C(C)C2 (centres undefined),TGI,[32],30.6 µM
same,TGI,[1],36.7 µM
same,TGI,[33],33.1 µM
same,GI50,[2],12.6 nM
same,TGI,[3],82.9 µM
same,TGI,[4],19.1 µM
same,TGI,[7],16.6 µM
same,TGI,[36],13.8 µM
same,TGI,[38],62 µM
same,TGI,[13],25.1 µM
same,TGI,[15],1.41 µM
same,TGI,[17],48.5 µM
same,TGI,[19],40.8 µM
same,TGI,[20],38.6 µM
same,TGI,[50],12.9 µM
same,TGI,[22],15.4 µM
same,GI50,[24],17.6 µM
same,TGI,[54],53.4 µM
same,TGI,[26],46.7 µM
same,GI50,[57],29.1 µM
same,TGI,[29],36.4 µM
same,TGI,[30],23.8 µM
same,TGI,[59],18.9 µM
